Here are results for six compounds from PMC11125039, “An Effective Modification Strategy to Build Multifunctional Peptides Based on a Trypsin Inhibitory Peptide of the Kunitz Family” (Pharmaceutics, 2024).

One assay has as its system HCT116. The experiment in a line: Antiproliferation assay (MTT). In kind it is cell-based, human. Conditions: HCT116, 24 h.
Assay [1] concerns E. coli (BAA 2340)-infected waxworms. In kind it is in vivo, Galleria mellonella. As to the method: The larvae of Galleria mellonella were used to evaluate the in vivo antibacterial activity of the peptides. In this assay, the larvae (250 ± 25 mg) (Livefood UK Ltd., Rooks Bridge, UK) of the infected group were infected with 10 μL of a bacterial suspension (1 × 10^7 CFU/mL). After one hour, 10 μL of a peptide solution was injected into each infected larva. As a positive control, infected larvae received 20 mg/kg of rifampicin. The vehicle control consisted of uninfected larvae administered 10 μL of PBS. All larvae were then monitored every 24 h for a duration of five days.

A further assay concerns U251MG. As to the kind of experiment: Antiproliferation assay (MTT). In kind it is cell-based, human. Conditions: 24 h.
For the next assay, the system named is MCF-7. Conditions: MCF-7, 24 h, MTT.
A further assay concerns HaCaT. As to the kind of experiment: Antiproliferation assay (MTT), normal cell cytotoxicity. In kind it is cell-based, human. Conditions: HaCaT (normal cell line), 24 h.
Assay [2] has as its system E. coli (NCTC 13846). The experiment in a line: Time-killing kinetic assay. It counts as cell-based, Escherichia coli. The conditions noted are these: for killing kinetics (in words): MIC, 2 × MIC and 4 × MIC. As to the method: (§1) The time-killing kinetic assay was executed to explore the killing efficiency of the peptides against bacteria. […] The bacteria were cultured using the same method as that employed in the antimicrobial activity determination assay. […] All colonies were counted and recorded after the seeded plates had been incubated at 37 °C for 24 h.

Assay [3] relates to E. coli (BAA 2340). As to the kind of experiment: Time-killing kinetic assay. In kind it is cell-based, Escherichia coli. How it is done:
as §1

In assay [4] the test system is E. coli (NCTC 13846). The experiment in a line: SYTOX Green permeability assay. It counts as cell-based, Escherichia coli. The conditions noted are these: at the MIC. How it is done: (§2) The SYTOX^TM Green Nucleic Acid Stain (ThermoFisher Scientific, Waltham, MA, USA) assay was used to investigate the antibacterial mechanism of the peptides as they cannot cross intact membranes, but can easily penetrate the damaged membranes characteristic of dead cells.
(§3) After being sub-cultured for 2 h, the bacteria were centrifuged at 1000× g for 10 min at 4 °C; then, the culture medium was discarded. […] After a third wash, the bacteria were diluted with the same solution until they reached the logarithmic growth phase in which the OD value just reached 0.70 at a wavelength of 590 nm. […] Finally, 10 μL of SYTOX^TM green nucleic acid stain (5 μM) was added to the plate and the mixture was incubated at 37 °C under dark conditions for another 5 min. […] Bacterial medium with 5% TSB acted as the negative control; bacterial medium treated with a melittin peptide solution (8 μM) was set as the positive control; 5% TSB alone was the blank control.

For another assay, the system named is E. coli (ATCC CRM 8739). As to the kind of experiment: SYTOX Green permeability assay. In kind it is cell-based, Escherichia coli. The conditions noted are these: at the MIC. As to the method: as §2, §3
Assay [5] has as its system E. coli (BAA 2340). The experiment in a line: SYTOX Green permeability assay. The conditions noted are these: at the MIC. In kind it is cell-based, Escherichia coli. As to the method:
as §2, §3

The next assay relates to H838. The experiment in a line: Antiproliferation assay (MTT). The conditions noted are these: H838, 24 h. In kind it is cell-based, human.
Where [6] appears, read: 4 × MIC of peptide, after 120 h of infection.

Molecules are shown by their SMILES. Like-named read-outs stand apart in the source and are kept apart here. Bridge positions count the residues as written; N and C are the ends. Peptide text beside a SMILES is read from it. A value given as a limit tells only on which side of the number the result lay.

Experimental for H838: (§4) The tested human cell lines in this assay included cancerous and non-cancerous cell lines: a human breast cancer cell line (MCF-7), a human lung carcinoma cell line (H838), a human colorectal carcinoma cell line (HCT116), and a human glioblastoma astrocytoma cell line (U251MG); these cell lines were incubated with the peptides at concentrations between 10^−4 to 10^−9 M to study their antiproliferation ability against cancer cells. Also, for the safety evaluation, a human skin keratinocyte cell line (HaCaT) was selected to investigate the cytotoxicity of peptides against normal human cells.
(§5) At first, after the stock cells were revived, they were transferred into a 75 mL flask with 10 mL of the corresponding culture medium and cultured for 3–5 days at 37 °C until most cells had attached to the flask wall. Then, the culture medium was removed, and 10 mL of PBS was used to wash the wall twice and discarded. Subsequently, 3–4 mL of a trypsin solution was added for 2–3 min to detach the cells from the container wall and then 8–10 mL of FBS was added to stop the digestion reaction. The cell suspension was transferred into a 15 mL tube and centrifuged. The supernatant was removed and 4 mL of complete growth medium was added to this tube to prepare a stock cell suspension. […] After 10 min of shaking, the cell viability in each well was read at a wavelength of 570 nm.
Experimental for HCT116: as §4
At first, after the stock cells were revived, they were transferred into a 75 mL flask with 10 mL of the corresponding culture medium and cultured for 3–5 days at 37 °C until most cells had attached to the flask wall. Then, the culture medium was removed, and 10 mL of PBS was used to wash the wall twice and discarded. Subsequently, 3–4 mL of a trypsin solution was added for 2–3 min to detach the cells from the container wall and then 8–10 mL of FBS was added to stop the digestion reaction. The cell suspension was transferred into a 15 mL tube and centrifuged. The supernatant was removed and 4 mL of complete growth medium was added to this tube to prepare a stock cell suspension. Approximately 10 µL of a mixture containing an equal volume of trypan blue and cell medium was dropped into a chamber to measure the density of cells under the microscope. Based on the cell density, the cell suspension was diluted with foetal bovine serum (FBS) (Sigma-Aldrich, St. Louis, MO, USA) to the standard cell density (H838, MCF-7: 8 × 10^4; U251MG: 5 × 10^4; HCT116: 2 × 10^5; HaCaT: 2 ×10^5 cells/mL). Then, it was seeded into a 96-well plate at 100 μL/well. After 20–24 h incubation, 100 μL of serum-free medium was used to replace the previous FBS medium and the plate was incubated another 4 h for cell starvation. At the same time, the peptide was dissolved in DMSO at a concentration of 10^−2 M and then mixed with the serum-free medium at working concentrations ranging from 10^−7 to 10^−4 M. Finally, the medium in the 96-well plate was replaced with the peptide solutions. The experimental group used 100 μL of the working concentration peptide solution. The vehicle group consisted of 1 µL of DMSO and 99 µL of serum-free medium. The blank and growth groups both comprised 100 µL of serum-free medium. The loaded 96-well plate was incubated for another 24 h for the treatment. The next day, 10 µL of MTT was added to each well and incubated for 2 h, after which, all media in each well were discarded and substituted with 100 μL of DMSO. After 10 min of shaking, the cell viability in each well was read at a wavelength of 570 nm.
Experimental for HaCaT: as §4
(§6) At first, after the stock cells were revived, they were transferred into a 75 mL flask with 10 mL of the corresponding culture medium and cultured for 3–5 days at 37 °C until most cells had attached to the flask wall. Then, the culture medium was removed, and 10 mL of PBS was used to wash the wall twice and discarded. Subsequently, 3–4 mL of a trypsin solution was added for 2–3 min to detach the cells from the container wall and then 8–10 mL of FBS was added to stop the digestion reaction. The cell suspension was transferred into a 15 mL tube and centrifuged. The supernatant was removed and 4 mL of complete growth medium was added to this tube to prepare a stock cell suspension. Approximately 10 µL of a mixture containing an equal volume of trypan blue and cell medium was dropped into a chamber to measure the density of cells under the microscope. Based on the cell density, the cell suspension was diluted with foetal bovine serum (FBS) (Sigma-Aldrich, St. Louis, MO, USA) to the standard cell density (H838, MCF-7: 8 × 10^4; U251MG: 5 × 10^4; HCT116: 2 × 10^5; HaCaT: 2 ×10^5 cells/mL). Then, it was seeded into a 96-well plate at 100 μL/well. After 20–24 h incubation, 100 μL of serum-free medium was used to replace the previous FBS medium and the plate was incubated another 4 h for cell starvation. […] After 10 min of shaking, the cell viability in each well was read at a wavelength of 570 nm.
Experimental for MCF-7: as §4, §5
Experimental for U251MG: as §4, §6

Turning to `CC[C@H](C)[C@H](NC(=O)[C@@H](N)C(C)C)C(=O)N[C@@H](Cc1ccccc1)C(=O)N[C@@H](CCCCN)C(=O)N[C@H](C(=O)N[C@@H](Cc1ccccc1)C(=O)N[C@@H](Cc1c[nH]c2ccccc12)C(=O)N[C@@H](CCCNC(=N)N)C(=O)N[C@H]1CSSC[C@@H](C(=O)O)NC(=O)[C@H](Cc2ccccc2)NC(=O)[C@H](C)NC(=O)[C@H](C)NC(=O)[C@H](CCCCN)NC1=O)C(C)C` [OSTI−1716] (H-VIFKVFWRCKAAFC-OH; disulfide 9-14; N-terminus and C-terminus assumed), the IC50 entry with HCT116 is recorded as “N.I”.
For the compound `CC(C)[C@H](NC(=O)[C@H](C)N)C(=O)N[C@@H](CCCCN)C(=O)N[C@@H](CCCNC(=N)N)C(=O)N[C@@H](C)C(=O)N[C@H](C(=O)N[C@@H](CCCCN)C(=O)N[C@@H](CCCNC(=N)N)C(=O)N[C@@H](Cc1ccccc1)C(=O)N[C@@H](CCCCN)C(=O)N[C@H](C(=O)N[C@@H](Cc1c[nH]cn1)C(=O)N[C@@H](Cc1ccccc1)C(=O)N[C@@H](CCCNC(=N)N)C(=O)N[C@H]1CSSC[C@@H](C(=O)O)NC(=O)[C@H](Cc2ccccc2)NC(=O)[C@H](C)NC(=O)[C@H](C)NC(=O)[C@H](CCCCN)NC1=O)C(C)C)C(C)C` [OSTI−2363] (H-AVKRAVKRFKVHFRCKAAFC-OH; disulfide 15-20; N-terminus and C-terminus assumed), the “mortality of infected larvae” value in [1] (setting [6]) was determined as 40%. Moreover, the IC50 result in the assay on U251MG, with HCT116, with MCF-7 and in the assay on HaCaT was “N.I” throughout. Besides, the “killing kinetics (in words)” value in the assay on E. coli (NCTC 13846) [2] is given as “almost instant bactericidal activity”; in the assay with E. coli (BAA 2340) [3] (MIC, 2 × MIC and 4 × MIC), “almost instant bactericidal activity”. Further, the “time to kill bacteria” value in the assay with E. coli (NCTC 13846) [2] (lowest tested concentration (MIC)) and with E. coli (BAA 2340) [3] (at the MIC) was at most 5 min in each case.
Take `CC[C@H](C)[C@H](NC(=O)[C@H](CC(N)=O)NC(=O)[C@@H](NC(=O)[C@H](C)N)C(C)C)C(=O)N1CCC[C@H]1C(=O)N[C@@H](Cc1ccccc1)C(=O)N[C@@H](CCCCN)C(=O)N[C@H](C(=O)N[C@@H](Cc1c[nH]cn1)C(=O)N[C@@H](Cc1ccccc1)C(=O)N[C@@H](CCCNC(=N)N)C(=O)N[C@H]1CSSC[C@@H](C(=O)O)NC(=O)[C@H](Cc2ccccc2)NC(=O)[C@H](C)NC(=O)[C@H](C)NC(=O)[C@H](CCCCN)NC1=O)C(C)C` [OSTI−1949] (H-AVNIPFKVHFRCKAAFC-OH; disulfide 12-17; N-terminus and C-terminus assumed): the IC50 entry in the assay on U251MG, in the assay on H838, in the assay on HCT116, in the assay on MCF-7 and with HaCaT was “N.I” each time. Further, the “uptake of SYTOX Green” value with E. coli (NCTC 13846) [4], in the assay on E. coli (ATCC CRM 8739) and with E. coli (BAA 2340) [5] was “approximately 50%” in each case.
Take `CO[C@H]1/C=C/O[C@@]2(C)Oc3c(C)c(O)c4c(O)c(c(/C=N/N5CCN(C)CC5)c(O)c4c3C2=O)NC(=O)/C(C)=C\C=C\[C@H](C)[C@H](O)[C@@H](C)[C@@H](O)[C@@H](C)[C@H](OC(C)=O)[C@@H]1C` [rifampicin, reference compound]: in assay [1] (20 mg/kg, 5 days, positive control), the “mortality of infected larvae” value stood at 20%.
As for `CC[C@H](C)[C@H](NC(=O)[C@H](CC(N)=O)NC(=O)[C@@H](NC(=O)[C@H](C)N)C(C)C)C(=O)N1CCC[C@H]1C(=O)N[C@@H](Cc1ccccc1)C(=O)N[C@@H](CCCCN)C(=O)N[C@H](C(=O)N[C@@H](Cc1c[nH]cn1)C(=O)N[C@@H](Cc1ccccc1)C(=O)N[C@@H](CCCCN)C(=O)N[C@H](C(=O)N[C@@H](Cc1c[nH]cn1)C(=O)N[C@@H](Cc1ccccc1)C(=O)N[C@@H](CCCNC(=N)N)C(=O)N[C@H]1CSSC[C@@H](C(=O)O)NC(=O)[C@H](Cc2ccccc2)NC(=O)[C@H](C)NC(=O)[C@H](C)NC(=O)[C@H](CCCCN)NC1=O)C(C)C)C(C)C` [OSTI−2461] (H-AVNIPFKVHFKVHFRCKAAFC-OH; disulfide 16-21; N-terminus and C-terminus assumed), the IC50 entry in the assay with HCT116 and in the assay on HaCaT was “N.I” throughout.
With `CC[C@H](C)[C@H](N)C(=O)N[C@@H](CCCCN)C(=O)N[C@@H](Cc1ccccc1)C(=O)N[C@@H](CCCCN)C(=O)N[C@H](C(=O)N[C@@H](Cc1c[nH]cn1)C(=O)N[C@@H](Cc1ccccc1)C(=O)N[C@@H](CCCNC(=N)N)C(=O)N[C@H]1CSSC[C@@H](C(=O)O)NC(=O)[C@H](Cc2ccccc2)NC(=O)[C@H](C)NC(=O)[C@H](C)NC(=O)[C@H](CCCCN)NC1=O)C(C)C` [OSTI−1696] (H-IKFKVHFRCKAAFC-OH; disulfide 9-14; N-terminus and C-terminus assumed), the “mortality of infected larvae” value in assay [1] (setting [6]) is recorded as 20%. Moreover, the IC50 result in the assay on U251MG, with H838 and with HCT116 was “N.I” throughout. In the assay on E. coli (NCTC 13846) [2], the “killing kinetics (in words)” value is recorded as “almost instant bactericidal activity”. Moreover, the “time to kill bacteria” value in the assay on E. coli (BAA 2340) [3] (at 2 × MIC) is reported as at most 5 min; with E. coli (BAA 2340) [3] (at 4 × MIC) it was at most 5 min; with E. coli (BAA 2340) [3] (at the MIC) it was at most 10 min.
